Laboratory results: patent publication US20190038628A1, “USE OF INHIBITORS OF THE ACTIVITY OR FUNCTION OF PI3K FOR THE TREATMENT OF PRIMARY SJOGREN'S SYNDROME” (Novartis AG, priority 2016, published 2019)
“And” between values parts separate entries of the source, which are not always exact repeats. Identical values can stand only once. Like-named read-outs stand apart in the source and are kept apart here.

Tested on: Akt-phosphorylation in IgM+ B cells
Experiment: Time-dependent inhibition of Akt-phosphorylation ex vivo by a single oral dose in rats
Parameters: species or system Lewis rats
Conditions: 10 mg/kg p.o. single dose; for inhibition at 10 mg/kg: Rattus norvegicus, B-cell, po; for % inhibition of pAkt in IgM+ B cells: rat, individual rats 1-4, 10 mg/kg
Procedure: All experiments were performed with adult male Lewis rats (LEW/Han/Hsd, Charles River, Germany and LEW/Orl@Rj, Janvier, France), weighing 220-280 g.
The suspension for administration was freshly prepared and stored in the dark at room temperature. 14.8 mg of compound A was suspended in 5.92 ml CMC 0.5% with 0.5% Tween80. The milky, homogeneous suspensions were then applied to the animal. The test substances were administered p.o. at in a volume of 4 ml/kg body weight resulting in an oral dose of 10 mg/kg.
Animals were anaesthetized with isoflurane using a Fluvac airflow system. Whole blood was collected sublingually pre-dose and at 1, 2, 4, 6, 8, 10, 12 and 24 hours post-dose. For pharmacodynamic analysis 100 μl rat blood was collected per time point in Eppendorf tubes with 30 IU sodium heparin (B. Braun, Melsungen, Germany; 5000 I.U./ml). For pharmacokinetic analysis 150 μl rat blood was collected per time point in EDTA coated Eppendorf (Milian cat# TOM-14) tubes.
For ex vivo analysis of blood from drug-treated animals, […] heparinized blood was mixed in 5 ml U-bottom tubes (BD, cat#352063) with […] of RPMI medium (Gibco, cat#31870) immediately after blood collection, and activated with 10 μl of anti-rat IgM/rIL-4 at a final concentration of anti-rat IgM of […] and rIL-4 of 10 ng/ml. Control samples were left unstimulated. Samples were mixed thoroughly and incubated for 10 minutes at 37° C. in the water bath.
After incubation, 2 ml of pre-warmed (37° C. in water bath) BD Phosflow Lyse/Fix buffer was added per tube. Samples were mixed thoroughly and incubated for 20 minutes at 37° C. in the water bath. Then samples were centrifuged at 400 g for 5 minutes. After centrifugation 2 ml of BD Phosflow Perm/wash buffer was added per tube. Samples were mixed thoroughly and incubated at room temperature (RT) in the dark for 10 minutes. Thereafter, the samples were snap-frozen on dry ice and then stored at −80° C. until FACS staining.
For thawing, all samples were incubated for 10 minutes in the water bath at 25° C. After centrifugation at 400 g for 5 minutes the pellets were washed with 2 ml of BD Phosflow Perm/wash buffer and again centrifuged at 400 g for 5 minutes. Supernatants were removed. For analysis of pAkt, samples were stained with PE-labeled anti-rat IgM (BD, cat#553888) to allow gating on B cells in FACS analysis. In addition, samples were stained with Alexa647 conjugated anti-phospho-Akt (Ser473; BD, cat#560343). Staining procedures were performed in a total volume of 100 μl BD Phosflow Perm/wash buffer at RT for 30 minutes in the dark. After incubation, samples were washed with 2 ml of BD Phosflow Perm/wash buffer and centrifuged at 400 g for 5 minutes and the pellets were resuspended in 300 μl BD Stain Buffer (BD, cat#554656). Samples were kept on ice until data were acquired on an LSRII flow cytometer (BD Biosciences) using DIVA software (version 6.1.2). Lymphocytes were gated in the FSC/SSC dot blot according to size and granularity and further analyzed for expression of IgM and phosphorylation of Akt. Data were calculated from dot blots or histograms as percentage of cells positively stained for Akt-phosphorylation within the IgM+ population.
The effects of the drugs ex vivo were expressed as inhibition of Akt-phosphorylation measured by flow cytometry. The percentage inhibition of Akt-phosphorylation was calculated by the following formula: […]
Group of four Lewis rats were treated with a single oral dose of 10 mg/kg of compound A. At indicated time points, 50% rat whole blood was stimulated with anti-rat IgM/rIL-4 and Akt-phosphorylation was determined as described in the Method section.

CCC(=O)N1CC[C@H](Nc2ncnc3c2CN(c2cnc(OC)c(C(F)(F)F)c2)CC3)C1 [Compound A, 1-{(S)-3-[6-(6-Methoxy-5-trifluoromethyl-pyridin-3-yl)-5,6,7,8-tetrahydro-pyrido[4,3-d]pyrimidin-4-ylamino]-pyrrolidin-1-yl}-propan-1-one]
inhibition at 10 mg/kg (0 h, time 0 h (pre-dose), mean of four animals, read-out: % inhibition of pAkt in IgM+ B cells, Average): 0% | inhibition at 10 mg/kg (1 h, time 1 h, individual rats 1-4, read-out: % inhibition of pAkt in IgM+ B cells): 100% | inhibition at 10 mg/kg (1 h, time 1 h, mean of four animals, read-out: % inhibition of pAkt in IgM+ B cells, Average): 98.2% | inhibition at 10 mg/kg (2 h, time 2 h, individual rats 1-4, read-out: % inhibition of pAkt in IgM+ B cells): 101% | inhibition at 10 mg/kg (2 h, time 2 h, mean of four animals, read-out: % inhibition of pAkt in IgM+ B cells, Average): 99.6% | inhibition at 10 mg/kg (4 h, time 4 h, mean of four animals, read-out: % inhibition of pAkt in IgM+ B cells, Average): 95.1% | inhibition at 10 mg/kg (6 h, time 6 h, mean of four animals, read-out: % inhibition of pAkt in IgM+ B cells, Average): 88.2% | inhibition at 10 mg/kg (8 h, time 8 h, mean of four animals, read-out: % inhibition of pAkt in IgM+ B cells, Average): 79.4% | inhibition at 10 mg/kg (10 h, time 10 h, individual rats 1-4, read-out: % inhibition of pAkt in IgM+ B cells): 69% | inhibition at 10 mg/kg (10 h, time 10 h, mean of four animals, read-out: % inhibition of pAkt in IgM+ B cells, Average): 70.7% | inhibition at 10 mg/kg (12 h, time 12 h, individual rats 1-4, read-out: % inhibition of pAkt in IgM+ B cells): 74.3% | inhibition at 10 mg/kg (12 h, time 12 h, mean of four animals, read-out: % inhibition of pAkt in IgM+ B cells, Average): 72.1% | inhibition at 10 mg/kg (24 h, time 24 h, mean of four animals, read-out: % inhibition of pAkt in IgM+ B cells, Average): 30.2% | % inhibition of pAkt in IgM+ B cells (time 0 h (pre-dose)): −2.0% and 15.7% and 6.9% and −20.6% | % inhibition of pAkt in IgM+ B cells (time 1 h): 95.6% and 99.1% | % inhibition of pAkt in IgM+ B cells (time 2 h): 97.3% and 101.8% | % inhibition of pAkt in IgM+ B cells (time 4 h): 93.8% and 105.3% and 81.4% | % inhibition of pAkt in IgM+ B cells (time 6 h): 76.1% and 99.1% and 94.7% and 83.1% | % inhibition of pAkt in IgM+ B cells (time 8 h): 83.1% (2×) and 85.8% and 65.4% | % inhibition of pAkt in IgM+ B cells (time 10 h): 76.9% and 62.7% | % inhibition of pAkt in IgM+ B cells (time 12 h): 71.6% and 73.4% | % inhibition of pAkt in IgM+ B cells (time 24 h): 30.8% and 40.6% and 37.0% and 12.2%
